# Results reported in ChEMBL document CHEMBL3045406, “Enantioselective Relieving Activity of α-Methylbenzylphenylureas toward Bensulfuron-methyl Injury to Rice (Oryza sativa)” (Biosci Biotechnol Biochem, 1999).
# Tested on: Oryza sativa
# Assay: Safener indices, ratio of compound effect of Oryza sativa (rice) growth rate to relieving activity against bensulfuron-methyl induced injury to Oryza sativa growth rate at 10 uM
# Settings: not given
row,SMILES,Ratio
1,Cc1ccccc1NC(=O)N[C@H](C)c1ccccc1,42
2,CCCCCc1ccc(NC(=O)N[C@@H](C)c2ccccc2)cc1,43
3,CCc1cccc(CC)c1NC(=O)N[C@@H](C)c1ccccc1,6
4,CC(=O)c1ccc(NC(=O)N[C@@H](C)c2ccccc2)cc1,74
5,CCCCCCCc1ccc(NC(=O)N[C@@H](C)c2ccccc2)cc1,21
6,C[C@@H](NC(=O)Nc1cc(C(F)(F)F)ccc1F)c1ccccc1,40
7,COc1ccc(NC(=O)N[C@@H](C)c2ccccc2)cc1,81
8,C[C@@H](NC(=O)Nc1ccccc1Cl)c1ccccc1,67
9,C[C@@H](NC(=O)Nc1ccccc1I)c1ccccc1,69
10,C[C@H](NC(=O)Nc1cc(C(C)(C)C)ccc1C(C)(C)C)c1ccccc1,46
11,C[C@@H](NC(=O)Nc1cc(F)ccc1F)c1ccccc1,57
12,C[C@@H](NC(=O)Nc1ccccc1Br)c1ccccc1,61
13,CCc1cccc(NC(=O)N[C@@H](C)c2ccccc2)c1,68
14,C[C@@H](NC(=O)Nc1cc(Cl)cc(Cl)c1)c1ccccc1,37
15,C[C@@H](NC(=O)Nc1cccc(F)c1)c1ccccc1,44

# Tested on: Oryza sativa
# Assay: Relieving activity against bensulfuron-methyl induced injury to Oryza sativa (rice) assessed as growth rate at 10 uM (Rbv = 46 to 53%)
# Assay type: functional
# Settings: not given
row,SMILES,Activity [%]
1,Cc1ccccc1NC(=O)N[C@H](C)c1ccccc1,71
2,CCCCCc1ccc(NC(=O)N[C@@H](C)c2ccccc2)cc1,71
3,CCc1cccc(CC)c1NC(=O)N[C@@H](C)c1ccccc1,46
4,CC(=O)c1ccc(NC(=O)N[C@@H](C)c2ccccc2)cc1,86
5,CCCCCCCc1ccc(NC(=O)N[C@@H](C)c2ccccc2)cc1,59
6,C[C@@H](NC(=O)Nc1cc(C(F)(F)F)ccc1F)c1ccccc1,59
7,COc1ccc(NC(=O)N[C@@H](C)c2ccccc2)cc1,91
8,C[C@@H](NC(=O)Nc1ccccc1Cl)c1ccccc1,83
9,C[C@@H](NC(=O)Nc1ccccc1I)c1ccccc1,84
10,C[C@H](NC(=O)Nc1cc(C(C)(C)C)ccc1C(C)(C)C)c1ccccc1,74
11,C[C@@H](NC(=O)Nc1cc(F)ccc1F)c1ccccc1,77
12,C[C@@H](NC(=O)Nc1ccccc1Br)c1ccccc1,79
13,CCc1cccc(NC(=O)N[C@@H](C)c2ccccc2)c1,82
14,C[C@@H](NC(=O)Nc1cc(Cl)cc(Cl)c1)c1ccccc1,69
15,C[C@@H](NC(=O)Nc1cccc(F)c1)c1ccccc1,67

# Tested on: Oryza sativa
# Assay: Effect on Oryza sativa (rice) assessed as growth rate at 0.1 uM relative to control
# Assay type: organism-based
# Settings: in vivo
row,SMILES,Activity [%]
1,Cc1ccccc1NC(=O)N[C@H](C)c1ccccc1,100
2,CCCCCc1ccc(NC(=O)N[C@@H](C)c2ccccc2)cc1,98
3,CCc1cccc(CC)c1NC(=O)N[C@@H](C)c1ccccc1,101
4,CCCCCCCc1ccc(NC(=O)N[C@@H](C)c2ccccc2)cc1,100
5,C[C@@H](NC(=O)Nc1cc(C(F)(F)F)ccc1F)c1ccccc1,87
6,C[C@@H](NC(=O)Nc1ccccc1I)c1ccccc1,100
7,C[C@H](NC(=O)Nc1cc(C(C)(C)C)ccc1C(C)(C)C)c1ccccc1,98

# The remaining lines, values ahead:
row,Activity [%],SMILES
1,99,CC(=O)c1ccc(NC(=O)N[C@@H](C)c2ccccc2)cc1
2,104,COc1ccc(NC(=O)N[C@@H](C)c2ccccc2)cc1
3,101,C[C@@H](NC(=O)Nc1ccccc1Cl)c1ccccc1
4,100,C[C@@H](NC(=O)Nc1cc(F)ccc1F)c1ccccc1
5,99,C[C@@H](NC(=O)Nc1ccccc1Br)c1ccccc1
6,100,CCc1cccc(NC(=O)N[C@@H](C)c2ccccc2)c1
7,99,C[C@@H](NC(=O)Nc1cc(Cl)cc(Cl)c1)c1ccccc1
8,99,C[C@@H](NC(=O)Nc1cccc(F)c1)c1ccccc1

# Tested on: Oryza sativa
# Assay: Relieving activity against bensulfuron-methyl induced injury to Oryza sativa (rice) assessed as growth rate at 0.1 uM (Rbv = 46 to 53%)
# Assay type: functional
# Settings: not given
row,SMILES,Activity [%]
1,Cc1ccccc1NC(=O)N[C@H](C)c1ccccc1,52
2,CCCCCc1ccc(NC(=O)N[C@@H](C)c2ccccc2)cc1,55
3,CCc1cccc(CC)c1NC(=O)N[C@@H](C)c1ccccc1,52
4,CC(=O)c1ccc(NC(=O)N[C@@H](C)c2ccccc2)cc1,60
5,CCCCCCCc1ccc(NC(=O)N[C@@H](C)c2ccccc2)cc1,51
6,C[C@@H](NC(=O)Nc1cc(C(F)(F)F)ccc1F)c1ccccc1,53
7,COc1ccc(NC(=O)N[C@@H](C)c2ccccc2)cc1,59
8,C[C@@H](NC(=O)Nc1ccccc1Cl)c1ccccc1,53
9,C[C@@H](NC(=O)Nc1ccccc1I)c1ccccc1,61
10,C[C@H](NC(=O)Nc1cc(C(C)(C)C)ccc1C(C)(C)C)c1ccccc1,56
11,C[C@@H](NC(=O)Nc1cc(F)ccc1F)c1ccccc1,54
12,C[C@@H](NC(=O)Nc1ccccc1Br)c1ccccc1,53
13,CCc1cccc(NC(=O)N[C@@H](C)c2ccccc2)c1,58
14,C[C@@H](NC(=O)Nc1cc(Cl)cc(Cl)c1)c1ccccc1,58
15,C[C@@H](NC(=O)Nc1cccc(F)c1)c1ccccc1,47

# Tested on: Oryza sativa
# Assay: Effect on Oryza sativa (rice) assessed as growth rate at 10 uM relative to control
# Assay type: organism-based
# Settings: in vivo
row,SMILES,Activity [%]
1,Cc1ccccc1NC(=O)N[C@H](C)c1ccccc1,99
2,CCCCCc1ccc(NC(=O)N[C@@H](C)c2ccccc2)cc1,93
3,CCc1cccc(CC)c1NC(=O)N[C@@H](C)c1ccccc1,83
4,CCCCCCCc1ccc(NC(=O)N[C@@H](C)c2ccccc2)cc1,99
5,C[C@@H](NC(=O)Nc1cc(C(F)(F)F)ccc1F)c1ccccc1,60
6,C[C@@H](NC(=O)Nc1ccccc1I)c1ccccc1,96
7,C[C@H](NC(=O)Nc1cc(C(C)(C)C)ccc1C(C)(C)C)c1ccccc1,97

# Results, then the molecule that gave them:
row,Activity [%],SMILES
1,96,CC(=O)c1ccc(NC(=O)N[C@@H](C)c2ccccc2)cc1
2,95,COc1ccc(NC(=O)N[C@@H](C)c2ccccc2)cc1
3,93,C[C@@H](NC(=O)Nc1ccccc1Cl)c1ccccc1
4,92,C[C@@H](NC(=O)Nc1cc(F)ccc1F)c1ccccc1
5,94,C[C@@H](NC(=O)Nc1ccccc1Br)c1ccccc1
6,86,CCc1cccc(NC(=O)N[C@@H](C)c2ccccc2)c1
7,99,C[C@@H](NC(=O)Nc1cc(Cl)cc(Cl)c1)c1ccccc1
8,84,C[C@@H](NC(=O)Nc1cccc(F)c1)c1ccccc1

# Tested on: Oryza sativa
# Assay: Effect on Oryza sativa (rice) assessed as growth rate at 1 uM relative to control
# Assay type: organism-based
# Settings: in vivo
row,SMILES,Activity [%]
1,Cc1ccccc1NC(=O)N[C@H](C)c1ccccc1,100
2,CCCCCc1ccc(NC(=O)N[C@@H](C)c2ccccc2)cc1,98
3,CCc1cccc(CC)c1NC(=O)N[C@@H](C)c1ccccc1,93
4,CCCCCCCc1ccc(NC(=O)N[C@@H](C)c2ccccc2)cc1,99
5,C[C@@H](NC(=O)Nc1cc(C(F)(F)F)ccc1F)c1ccccc1,70
6,C[C@@H](NC(=O)Nc1ccccc1I)c1ccccc1,100
7,C[C@H](NC(=O)Nc1cc(C(C)(C)C)ccc1C(C)(C)C)c1ccccc1,98

# Results, then the molecule that gave them:
row,Activity [%],SMILES
1,99,CC(=O)c1ccc(NC(=O)N[C@@H](C)c2ccccc2)cc1
2,99,COc1ccc(NC(=O)N[C@@H](C)c2ccccc2)cc1
3,103,C[C@@H](NC(=O)Nc1ccccc1Cl)c1ccccc1
4,100,C[C@@H](NC(=O)Nc1cc(F)ccc1F)c1ccccc1
5,100,C[C@@H](NC(=O)Nc1ccccc1Br)c1ccccc1
6,94,CCc1cccc(NC(=O)N[C@@H](C)c2ccccc2)c1
7,99,C[C@@H](NC(=O)Nc1cc(Cl)cc(Cl)c1)c1ccccc1
8,95,C[C@@H](NC(=O)Nc1cccc(F)c1)c1ccccc1

# Tested on: Oryza sativa
# Assay: Relieving activity against bensulfuron-methyl induced injury to Oryza sativa (rice) assessed as growth rate at 1 uM (Rbv = 46 to 53%)
# Assay type: functional
# Settings: not given
row,SMILES,Activity [%]
1,Cc1ccccc1NC(=O)N[C@H](C)c1ccccc1,55
2,CCCCCc1ccc(NC(=O)N[C@@H](C)c2ccccc2)cc1,59
3,CCc1cccc(CC)c1NC(=O)N[C@@H](C)c1ccccc1,50
4,CC(=O)c1ccc(NC(=O)N[C@@H](C)c2ccccc2)cc1,81
5,CCCCCCCc1ccc(NC(=O)N[C@@H](C)c2ccccc2)cc1,53
6,C[C@@H](NC(=O)Nc1cc(C(F)(F)F)ccc1F)c1ccccc1,55
7,COc1ccc(NC(=O)N[C@@H](C)c2ccccc2)cc1,81
8,C[C@@H](NC(=O)Nc1ccccc1Cl)c1ccccc1,63
9,C[C@@H](NC(=O)Nc1ccccc1I)c1ccccc1,68
10,C[C@H](NC(=O)Nc1cc(C(C)(C)C)ccc1C(C)(C)C)c1ccccc1,59
11,C[C@@H](NC(=O)Nc1cc(F)ccc1F)c1ccccc1,67
12,C[C@@H](NC(=O)Nc1ccccc1Br)c1ccccc1,60
13,CCc1cccc(NC(=O)N[C@@H](C)c2ccccc2)c1,72
14,C[C@@H](NC(=O)Nc1cc(Cl)cc(Cl)c1)c1ccccc1,63
15,C[C@@H](NC(=O)Nc1cccc(F)c1)c1ccccc1,57

# Tested on: Oryza sativa
# Assay: Safener indices, ratio of compound effect of Oryza sativa (rice) growth rate to relieving activity against bensulfuron-methyl induced injury to Oryza sativa growth rate at 0.1 uM
# Settings: not given
row,SMILES,Ratio
1,Cc1ccccc1NC(=O)N[C@H](C)c1ccccc1,6
2,CCCCCc1ccc(NC(=O)N[C@@H](C)c2ccccc2)cc1,9
3,CCc1cccc(CC)c1NC(=O)N[C@@H](C)c1ccccc1,1
4,CC(=O)c1ccc(NC(=O)N[C@@H](C)c2ccccc2)cc1,24
5,CCCCCCCc1ccc(NC(=O)N[C@@H](C)c2ccccc2)cc1,4
6,C[C@@H](NC(=O)Nc1cc(C(F)(F)F)ccc1F)c1ccccc1,13
7,COc1ccc(NC(=O)N[C@@H](C)c2ccccc2)cc1,6
8,C[C@@H](NC(=O)Nc1ccccc1Cl)c1ccccc1,3
9,C[C@@H](NC(=O)Nc1ccccc1I)c1ccccc1,19
10,C[C@H](NC(=O)Nc1cc(C(C)(C)C)ccc1C(C)(C)C)c1ccccc1,8
11,C[C@@H](NC(=O)Nc1cc(F)ccc1F)c1ccccc1,7
12,C[C@@H](NC(=O)Nc1ccccc1Br)c1ccccc1,6
13,CCc1cccc(NC(=O)N[C@@H](C)c2ccccc2)c1,15
14,C[C@@H](NC(=O)Nc1cc(Cl)cc(Cl)c1)c1ccccc1,14
15,C[C@@H](NC(=O)Nc1cccc(F)c1)c1ccccc1,-4

# Tested on: not listed separately
# Assay: Hydrophobicity, log K of the compound
# Assay type: physicochemical
# Settings: octanol/water
row,SMILES,log K
1,Cc1ccccc1NC(=O)N[C@H](C)c1ccccc1,0.337
2,CCCCCc1ccc(NC(=O)N[C@@H](C)c2ccccc2)cc1,0.912
3,CCc1cccc(CC)c1NC(=O)N[C@@H](C)c1ccccc1,0.523
4,CCCCCCCc1ccc(NC(=O)N[C@@H](C)c2ccccc2)cc1,1.266
5,C[C@@H](NC(=O)Nc1cc(C(F)(F)F)ccc1F)c1ccccc1,0.64
6,C[C@@H](NC(=O)Nc1ccccc1I)c1ccccc1,0.502
7,C[C@H](NC(=O)Nc1cc(C(C)(C)C)ccc1C(C)(C)C)c1ccccc1,1.001

# Second part, the molecule after the results:
row,log K,SMILES
1,0.227,CC(=O)c1ccc(NC(=O)N[C@@H](C)c2ccccc2)cc1
2,0.211,COc1ccc(NC(=O)N[C@@H](C)c2ccccc2)cc1
3,0.486,C[C@@H](NC(=O)Nc1ccccc1Cl)c1ccccc1
4,0.464,C[C@@H](NC(=O)Nc1cc(F)ccc1F)c1ccccc1
5,0.504,C[C@@H](NC(=O)Nc1ccccc1Br)c1ccccc1
6,0.489,CCc1cccc(NC(=O)N[C@@H](C)c2ccccc2)c1
7,0.703,C[C@@H](NC(=O)Nc1cc(Cl)cc(Cl)c1)c1ccccc1
8,0.363,C[C@@H](NC(=O)Nc1cccc(F)c1)c1ccccc1

# Tested on: Oryza sativa
# Assay: Safener indices, ratio of compound effect of Oryza sativa (rice) growth rate to relieving activity against bensulfuron-methyl induced injury to Oryza sativa growth rate at 1 uM
# Settings: not given
row,SMILES,Ratio
1,Cc1ccccc1NC(=O)N[C@H](C)c1ccccc1,12
2,CCCCCc1ccc(NC(=O)N[C@@H](C)c2ccccc2)cc1,16
3,CCc1cccc(CC)c1NC(=O)N[C@@H](C)c1ccccc1,6
4,CC(=O)c1ccc(NC(=O)N[C@@H](C)c2ccccc2)cc1,63
5,CCCCCCCc1ccc(NC(=O)N[C@@H](C)c2ccccc2)cc1,9
6,C[C@@H](NC(=O)Nc1cc(C(F)(F)F)ccc1F)c1ccccc1,28
7,COc1ccc(NC(=O)N[C@@H](C)c2ccccc2)cc1,57
8,C[C@@H](NC(=O)Nc1ccccc1Cl)c1ccccc1,21
9,C[C@@H](NC(=O)Nc1ccccc1I)c1ccccc1,34
10,C[C@H](NC(=O)Nc1cc(C(C)(C)C)ccc1C(C)(C)C)c1ccccc1,15
11,C[C@@H](NC(=O)Nc1cc(F)ccc1F)c1ccccc1,34
12,C[C@@H](NC(=O)Nc1ccccc1Br)c1ccccc1,20
13,CCc1cccc(NC(=O)N[C@@H](C)c2ccccc2)c1,48
14,C[C@@H](NC(=O)Nc1cc(Cl)cc(Cl)c1)c1ccccc1,25
15,C[C@@H](NC(=O)Nc1cccc(F)c1)c1ccccc1,22
